Source: patent EP0123217A1, “1-(4-(4-(Fluoralkylmethylthio or sulfinyl or sulfinyl-)phenoxy)phenyl)-1,3,5-triazine-2,4,6(1H-3H,5H)triones, process for their preparation and their use as agents against coccidiosis” (BAYER AG, priority 1983, dated 1984)
Where a name gives a salt, the structure may show the parent alone.

Columns and labels:
[1] = test system: E. acervulina; test: Coccidiosis in chicks, minimum effective dose (oocyst excretion, clinical symptoms, mortality); assay type: in vivo, Eimeria acervulina
[2] = test system: E. falciformis; test: Coccidiosis in mice, minimum effective dose (oocyst excretion, clinical symptoms, mortality); assay type: in vivo, Eimeria falciformis; settings: for minimal effective dose: Eimeria falciformis, mice (15 g), infected with 10,000 sporulated oocysts, treated on days 1, 2, 3, 6, 7 and 8 after infection, read-out: wirksame Mindestdosierung E. falciformis
From the text: Die coccidiostatische Aktivität von Verbindungen, die für die Verbindungen gemäß der Erfindung repräsentativ sind, wird in Tabelle 1 veranschaulicht, wo Eimeria tenella (Blinddarm-Coccidiose/Hühner), Eimeria acervulina und Eimeria maxima (Dünndarm-Coccidiose von Hühnern) als Beispiele der Aktivität im Falle der Coddidiose bei Geflügel genannt sind, während Eimeria falciformus (Coccidiose/Mäuse) als Coccidium bei Säugetieren angegeben ist.
Die Behandlung der Infektion mit Eimeria falciformis bei Mäusen, die als Beispiel der Coccidiose bei Säugetieren erwähnt ist, fand am ersten, zweiten, dritten, sechsten, siebten und achten Tag nach der Infektion statt. Die Infektion erfolgte mit.10,000 sporulierten Oozysten pro Maus (Gewicht 15 g). Im Falle der unbehandelten Vergleichstiere fanden massive Ausscheidung von Oozysten, blutiger Durchfall und 30 % Sterblichkeit der Tiere, die der Infektion zuzuschreiben waren, vom siebten Tage nach der Infektion an statt.
Als wirksam wurden diejenigen Dosen angesehen, die die Ausscheidung von Oozysten und/oder klinische Symptome der Coccidiose einschließlich der Mortalität vollständig oder in hohem Maße verhüteten.

[3] = test system: E. tenella; test: Coccidiosis in chicks, minimum effective dose (oocyst excretion, clinical symptoms, mortality); assay type: in vivo, Eimeria tenella
[4] = test system: E. maxima; test: as above; assay type: in vivo, Eimeria maxima
[5] = chicks 9 to 11 days old, infected with 4000 sporulated oocysts, compound given from 3 days before to 8 days after infection

| Structure (SMILES) | wirksame Mindestdosierung E. acervulina [1, 5] | minimal effective dose [2] | wirksame Mindestdosierung E. tenella [3, 5] | wirksame Mindestdosierung E. maxima [4, 5] | wirksame Mindestdosierung E. acervulina ([1]; in vivo) | wirksame Mindestdosierung E. falciformis ([2]; in vivo) | wirksame Mindestdosierung E. tenella ([3]; in vivo) | wirksame Mindestdosierung E. maxima ([4]; in vivo) |
| --- | --- | --- | --- | --- | --- | --- | --- | --- |
| CCCc1ncc(C[n+]2ccccc2C)c(N)n1 [A, 1[(4-Amino-2-propyl-5-pyrimidinyl)-methyl]-2-picoliniumchloridhydrochlorid, reference compound] | 125 ppm | 500 mg/kg | 125 ppm | 125 ppm | – | – | – | – |
| CCC1(C2OC(C3OC(O)(CO)C(C)CC3C)CC2C)CCC(C2(C)CCC3(CC(O)C(C)C(C(C)C(OC)C(C)C(=O)O)O3)O2)O1 (centres unmarked) [M, reference compound] | – | – | – | – | 50 ppm | 250 mg/kg | 75 ppm | 50 ppm |
| Cn1c(=O)[nH]c(=O)n(-c2cc(Cl)c(Oc3ccc(SCC(F)(F)F)cc3)c(Cl)c2)c1=O [[drawing] r3] | 25 ppm | 1 mg/kg | 50 ppm | 25 ppm | – | – | – | – |
| COc1cc(-n2c(=O)[nH]c(=O)n(C)c2=O)ccc1Oc1ccc(SCC(F)(F)F)cc1 [[drawing] r4] | 50 ppm | 25 mg/kg | 50 ppm | 50 ppm | – | – | – | – |
| Cn1c(=O)[nH]c(=O)n(-c2cc(Cl)c(Oc3ccc(S(=O)(=O)CC(F)(F)F)cc3)c(Cl)c2)c1=O [[drawing] r5] | 10 ppm | 100 mg/kg | 10 ppm | 10 ppm | – | – | – | – |
